From patent US20230303547A1, “N-CYANOPYRROLIDINES WITH ACTIVITY AS USP30 INHIBITORS” (MISSION THERAPEUTICS LIMITED, priority 2020, published 2023) come the findings set out here.

Converted amounts (≈) assume the structure as drawn.

One data set has as its target Cathepsin V (Homo sapiens (Human), UniProt O60911). Description: Cathepsin V IC50. The format is biochemical.
The nature of another data set: Mouse plasma stability. The format is in vitro ADME. The conditions noted are these: read-out: Stability Mouse plasma t½. An excerpt:
Other parameters that may be measured using standard assays that are indicative of a compound’s exposure profile include, for example plasma stability (half-life measurement), blood AUC, Cmax, Cmin and Tmax values.

In a further data set the test system is TOM20 ubiquitylation. Description: TOM20-ubiquitylation assay. Type of data set: cell-based, human. An excerpt:
(§1) USP30 is a transmembrane protein located in the outer membrane of mitochondria, which are energy-producing organelles present inside cells. […] The USP30 cellular western blot (WB) assay described herein aims to test the activity of compounds against USP30 in cells using an irreversible activity probe to monitor USP30 activity. Analogously to the cellular western blot assay, target engagement assessment (ex vivo) may be carried out in either brain or kidney tissue samples from compound-dosed animals. To extend target binding knowledge to downstream pharmacodynamics, assessment of TOM20 (an outer mitochondrial membrane protein) ubiquitylation may be made.
Human cell lines can be challenged with mitochondrial depolarizing agents (ionophores (eg. CCCP, valinomycin), mitochondrial complex inhibitors (oligomycin, antimycin A)) to induce ubiquitylation of TOM20, which is then further promoted in the presence of USP30 inhibitors. TOM20 ubiquitylation is subsequently assessed through western blotting of the cell lysates, with TOM20 ubiquitylation adduct detection possible due to an 8 kDa molecule weight increase for each molecule of ubiquitin added, resulting in laddering of a TOM20 immunoreactive band. TOM20-ubiquitylation levels can be quantified using chemiluminescence densitometry of laddered immunoreactive bands.

Another data set addresses UCHL1 (Homo sapiens (Human), UniProt P09936). Description: UCHL1 DUB IC50. The format is biochemical.
A short description of a further data set: PK mouse 2 mg/kg iv. The format is in vivo. The conditions noted are these: for Kp uu: brain and plasma (unbound), 2 mg/kg IV dose - mouse; for clearance: plasma, mouse, 2 mg/kg iv, read-out: Cl plasma. The text has this: Cl in vivo clearance: Pharmacokinetic measurement of the volume of plasma (or any matrix) from which a substance is completely removed per unit time.
Kpuu is the ratio of unbound drug in brain to unbound drug in plasma and may be indicative of potential for treating peripheral and/or CNS indications.

Data set [1] can be described thus: Plasma free fraction by equilibrium dialysis. The format is in vitro ADME. The conditions noted are these: mouse plasma; read-out: Binding Mouse Plasma fu,p. An excerpt: Plasma fu,p: The free fraction of a compound in plasma preparation determined by in vitro equilibrium dialysis.
The nature of another data set: Turbidimetric solubility. The format is physicochemical. The conditions noted are these: aqueous buffer, kinetic from dmso stock. The text has this:
The solubility of a compound is an important factor in achieving a desired concentration of drug in systemic circulation for the anticipated pharmacological response. Low aqueous solubility is a problem encountered with formulation development of new chemical entities and to be absorbed a drug must be present in the form of solution at the site of absorption. The kinetic solubility of a compound may be measured using a turbidimetric solubility assay, the data from which may also be used in conjunction with Caco-2 permeability data to predict dose dependent human intestinal absorption.
Turbidimetric solubility: Test compound solution prepared in DMSO diluted into aqueous buffer. Turbidimetry is used as the end-point by measuring absorbance at 620 nm.

The nature of another data set: PK mouse 10 mg/kg po. Type of data set: in vivo. The conditions noted are these: for Unbound plasma Cmax/TOM20-Ub cell potency: 10 mg/kg po dose - mouse; for Oral F: mouse, 10 mg/kg. An excerpt:
Oral F: Oral bioavailability.

Another data set addresses Endogenous USP30 (Homo sapiens (Human), UniProt Q70CQ3). Description: USP30 endogenous cellular target engagement assay (Cell TE WB). Type of data set: cell-based. The conditions noted are these: Hela cells stably overexpressing YFP-Parkin, 1 hour.
Source text: as §1
Hela cells stably overexpressing YFP-Parkin were seeded into 6 well dishes. Once adhered, cells were treated with appropriate concentrations of test compounds or vehicle control for 1 hour at 37° C., 5% CO2. […] USP30 was detected using an anti-USP30 Sheep S746D antibody (MRC PPU Reagents and Services) and a rabbit anti sheep secondary IgG (H+L) horseradish peroxidase conjugated (Thermo #31480) and visualised using ECL reagent (GE #RPN2109) on a GE LAS4000 imager. Target engagement was measured by quantitation of the bands corresponding to USP30 and USP30 bound to the Ub-VME probe and expression of this proportion compared to vehicle treated control.

The target in another data set is Cathepsin L (Homo sapiens (Human), UniProt P07711). Description: Cathepsin L IC50. The format is biochemical.
Sequence of Cathepsin L (P07711 114-333, species assumed): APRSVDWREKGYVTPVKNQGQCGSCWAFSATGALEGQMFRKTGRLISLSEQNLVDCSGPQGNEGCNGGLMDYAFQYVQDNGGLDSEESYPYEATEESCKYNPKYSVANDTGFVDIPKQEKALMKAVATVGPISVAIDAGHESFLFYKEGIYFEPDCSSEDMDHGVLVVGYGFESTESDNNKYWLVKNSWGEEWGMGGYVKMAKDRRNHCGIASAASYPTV
A further data set can be described thus: Hepatocyte Cl mouse. Type of data set: in vitro ADME. The following applies: mouse hepatocytes. Here is the method:
Hep Cl mouse: in vitro hepatocyte clearance in mouse cells.
(§2) Clu: in vitro clearance. Clu as defined here is the scaled clearance, in turn calculated from the intrinsic clearance. The intrinsic clearance is the predicted clearance due to hepatic metabolic reactions, determined from incubation of a compound in a hepatocyte preparation.

The nature of the next data set: Hepatocyte Cl human. The format is in vitro ADME. The following applies: human hepatocytes. The method, then: Hep Cl human: in vitro hepatocyte clearance in human cells.
as §2

Another data set has as its target Cathepsin K (Homo sapiens (Human), UniProt P43235). Description: Cathepsin K IC50. Type of data set: biochemical.
The next data set has as its target Cathepsin S (Homo sapiens (Human), UniProt P25774). Description: Cathepsin S IC50. The format is biochemical.
A short description of a further data set: Log D. The format is physicochemical. The following applies: pH 7.4; read-out: Log D measured at pH 7.4. The text has this:
log D: distribution co-efficient; lipophilicity measurement.

Data set [2] in a line: Brain homogenate free fraction by equilibrium dialysis. Type of data set: in vitro ADME. The following applies: mouse brain homogenate; read-out: Binding Mouse Brain fu,br. The text has this:
Brain fu,br: The free fraction of a compound in brain homogenate preparation determined by in vitro equilibrium dialysis.

Sequence of Cathepsin V (O60911 114-334, species assumed): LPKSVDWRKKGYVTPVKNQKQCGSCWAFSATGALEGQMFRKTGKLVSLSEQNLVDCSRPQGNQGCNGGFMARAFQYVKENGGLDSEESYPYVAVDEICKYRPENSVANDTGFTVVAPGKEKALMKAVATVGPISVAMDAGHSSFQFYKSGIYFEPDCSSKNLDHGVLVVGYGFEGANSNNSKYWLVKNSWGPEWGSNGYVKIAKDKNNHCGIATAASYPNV
Sequence of Cathepsin K (P43235 115-329, species assumed): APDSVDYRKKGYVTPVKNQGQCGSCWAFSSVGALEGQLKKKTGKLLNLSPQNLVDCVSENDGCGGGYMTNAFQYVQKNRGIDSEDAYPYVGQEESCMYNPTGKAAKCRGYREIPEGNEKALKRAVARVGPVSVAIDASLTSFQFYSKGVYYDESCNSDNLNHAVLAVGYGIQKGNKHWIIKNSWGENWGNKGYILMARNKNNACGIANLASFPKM
Sequence of UCHL1 (P09936 whole entry, species assumed): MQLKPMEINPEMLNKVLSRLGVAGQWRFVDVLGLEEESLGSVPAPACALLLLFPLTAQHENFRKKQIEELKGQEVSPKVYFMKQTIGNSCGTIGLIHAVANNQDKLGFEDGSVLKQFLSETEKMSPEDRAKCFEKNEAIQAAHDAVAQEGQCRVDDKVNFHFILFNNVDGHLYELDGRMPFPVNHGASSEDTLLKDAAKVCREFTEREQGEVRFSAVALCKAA
Sequence of Cathepsin S (P25774 115-331, species assumed): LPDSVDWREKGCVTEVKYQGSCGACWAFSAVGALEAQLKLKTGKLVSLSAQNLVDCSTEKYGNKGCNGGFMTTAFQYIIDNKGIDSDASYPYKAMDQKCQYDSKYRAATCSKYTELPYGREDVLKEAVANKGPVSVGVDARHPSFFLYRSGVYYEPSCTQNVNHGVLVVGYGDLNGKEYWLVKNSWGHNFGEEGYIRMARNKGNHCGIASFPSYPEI
Sequence of Endogenous USP30 (Q70CQ3 whole entry): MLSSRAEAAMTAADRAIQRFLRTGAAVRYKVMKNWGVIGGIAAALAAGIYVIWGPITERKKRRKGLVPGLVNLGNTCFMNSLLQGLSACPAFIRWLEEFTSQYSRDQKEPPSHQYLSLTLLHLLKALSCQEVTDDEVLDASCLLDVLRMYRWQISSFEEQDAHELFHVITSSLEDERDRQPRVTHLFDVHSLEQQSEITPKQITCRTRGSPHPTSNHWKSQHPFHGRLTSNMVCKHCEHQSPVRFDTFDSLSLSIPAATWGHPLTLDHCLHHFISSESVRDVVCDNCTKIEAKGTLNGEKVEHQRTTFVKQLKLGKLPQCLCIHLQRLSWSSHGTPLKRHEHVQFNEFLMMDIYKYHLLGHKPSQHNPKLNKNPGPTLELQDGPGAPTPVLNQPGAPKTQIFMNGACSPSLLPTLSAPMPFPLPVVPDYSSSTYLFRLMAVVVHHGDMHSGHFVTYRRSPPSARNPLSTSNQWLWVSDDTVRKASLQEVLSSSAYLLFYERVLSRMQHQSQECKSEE

As for `C[C@@H]1C[C@@H](NC(=O)c2ncc(-c3cc(C#N)ccc3OC3CC3)o2)CN1C#N` [Example 1, 5-(5-cyano-2-cyclopropoxyphenyl)-N-((3R,5R)-1-cyano-5-methylpyrrolidin-3-yl)oxazole-2-carboxamide], the IC50 was 30.9 µM against Cathepsin V; greater than 300 µM at UCHL1; 9.9 µM on Cathepsin L; 10.5 µM against Cathepsin K; 54.4 µM against Cathepsin S. Further, the half-life in “Mouse plasma stability” is greater than 120 min. Moreover, in the data set on TOM20 ubiquitylation, the “TOM20-Ub 1.5-fold gain, Antimycin A/oligomycin mitophagy trigger EC1.5x” value is on record as 0.006 µM. Also, the Kp uu in “PK mouse 2 mg/kg iv” amounted to 0.02. Further, in “PK mouse 2 mg/kg iv”, the clearance was determined as 41 mL/min/kg. Besides, the fraction unbound came to 0.09 in data set [1] and 0.06 in [2]. In the data set “Turbidimetric solubility”, this compound came in with a solubility of 65 µM (≈ 24.5 µg/mL). Besides, in the data set “PK mouse 10 mg/kg po”, the “Unbound plasma Cmax/TOM20-Ub cell potency” value turned out to be 45. In addition, the “Oral F” value in the data set “PK mouse 10 mg/kg po” was determined as 37%. Further, the EC50 at Endogenous USP30 amounted to 2 nM. For the same compound, in “Hepatocyte Cl mouse”, the “Hepatocyte Cl mouse Scaled Clu” value worked out at 117 mL/min/kg. Besides, the “Hepatocyte Cl human Scaled Clu” value in “Hepatocyte Cl human” worked out at 18.6 mL/min/kg. Further, the logD in the data set “Log D” was determined as 2.5.
On to `COC[C@@H]1C[C@@H](NC(=O)c2ncc(-c3cc(C#N)ccc3OC3CC3)o2)CN1C#N` [Example 2, 5-(5-cyano-2-cyclopropoxyphenyl)-N-((3R,5S)-1-cyano-5-(methoxymethyl)pyrrolidin-3-yl)oxazole-2-carboxamide], for which the IC50 is 60.6 µM at Cathepsin V; greater than 300 µM on UCHL1; 23.6 µM at Cathepsin L; 18.9 µM against Cathepsin K; 91.2 µM against Cathepsin S. The half-life in the data set “Mouse plasma stability” is greater than 120 min. In addition, the “TOM20-Ub 1.5-fold gain, Antimycin A/oligomycin mitophagy trigger EC1.5x” value with TOM20 ubiquitylation turned out to be 0.007 µM. The compound further registered a Kp uu in “PK mouse 2 mg/kg iv” of 0.01. Further, the clearance in the data set “PK mouse 2 mg/kg iv” is 20 mL/min/kg. Moreover, the results for the fraction unbound in [1] and in data set [2] were 0.07 and 0.2, respectively. The compound further had a solubility in “Turbidimetric solubility” greater than 100 µM. Moreover, the “Unbound plasma Cmax/TOM20-Ub cell potency” value in the data set “PK mouse 10 mg/kg po” is listed as 140. Moreover, the “Oral F” value in the data set “PK mouse 10 mg/kg po” is reported as 47%. The EC50 at Endogenous USP30 amounted to 3 nM. The “Hepatocyte Cl mouse Scaled Clu” value in “Hepatocyte Cl mouse” stood at 105 mL/min/kg. Moreover, the “Hepatocyte Cl human Scaled Clu” value in the data set “Hepatocyte Cl human” came to 5.0 mL/min/kg. Moreover, the logD in the data set “Log D” came out at 2.2.
